Source: PubChem BioAssay AID2060906 (Molecular Pharmacology Branch, DTP, NCI, 2025)

Tested on: 485176-168-R4-J1-PDC complex spheroid growth
Experiment: Anticancer human tumor 485176-168-R4-J1-PDC patient-derived pancreatic adenocarcinoma cell line growth inhibition [RAS]
Settings: for viability, T/C: stronger effect = lower value
How it was run: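 Agents were tested in combination matrices in half-log decrements from a top concentration at or near clinical Cmax (10 microM if undetermined). Targets were multi-cell spheroids of tumour lines plus HUVEC and MSC stromal cells.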

[1] = curve of first compound, second compound 0.000949 µM
[2] = curve of first compound, second compound 0.003 µM
[3] = curve of first compound, second compound 0.00949 µM
[4] = curve of first compound, second compound 0.03 µM
[5] = curve of first compound, second compound 0.0949 µM
[6] = curve of first compound, second compound 0.3 µM
[7] = second compound 0.000949 µM, first compound 0.0316 µM
[8] = second compound 0.000949 µM, first compound 0.1 µM
[9] = second compound 0.000949 µM, first compound 0.316 µM
[10] = second compound 0.000949 µM, first compound 1 µM
[11] = second compound 0.000949 µM, first compound 3.16 µM
[12] = second compound 0.000949 µM, first compound 10 µM
[13] = second compound 0.003 µM, first compound 0.0316 µM
[14] = second compound 0.003 µM, first compound 0.1 µM
[15] = second compound 0.003 µM, first compound 0.316 µM
[16] = second compound 0.003 µM, first compound 1 µM
[17] = second compound 0.003 µM, first compound 3.16 µM
[18] = second compound 0.003 µM, first compound 10 µM
[19] = second compound 0.00949 µM, first compound 0.0316 µM
[20] = second compound 0.00949 µM, first compound 0.1 µM
[21] = second compound 0.00949 µM, first compound 0.316 µM
[22] = second compound 0.00949 µM, first compound 1 µM
[23] = second compound 0.00949 µM, first compound 3.16 µM
[24] = second compound 0.00949 µM, first compound 10 µM
[25] = second compound 0.03 µM, first compound 0.0316 µM
[26] = second compound 0.03 µM, first compound 0.1 µM
[27] = second compound 0.03 µM, first compound 0.316 µM
[28] = second compound 0.03 µM, first compound 1 µM
[29] = second compound 0.03 µM, first compound 3.16 µM
[30] = second compound 0.03 µM, first compound 10 µM
[31] = second compound 0.0949 µM, first compound 0.0316 µM
[32] = second compound 0.0949 µM, first compound 0.1 µM
[33] = second compound 0.0949 µM, first compound 0.316 µM
[34] = second compound 0.0949 µM, first compound 1 µM
[35] = second compound 0.0949 µM, first compound 3.16 µM
[36] = second compound 0.0949 µM, first compound 10 µM
[37] = second compound 0.3 µM, first compound 0.0316 µM
[38] = second compound 0.3 µM, first compound 0.1 µM
[39] = second compound 0.3 µM, first compound 0.316 µM
[40] = second compound 0.3 µM, first compound 1 µM
[41] = second compound 0.3 µM, first compound 3.16 µM
[42] = second compound 0.3 µM, first compound 10 µM
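Also: spheroids exposed to compounds for seven days before readout.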
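For viability, T/C in this document: luminescence viability expressed relative to DMSO vehicle wells set as 100%.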

## Cc1nc(N2CCC3(CC2)COC(C)C3N)c(CO)nc1Sc1ccnc(N)c1Cl (stereo not drawn) + CCn1c(-c2cc(N3CCN(C)CC3)cnc2C(C)OC)c2c3cc(ccc31)-c1csc(n1)CC(NC(=O)C1CC1C)C(=O)N1CCCC(N1)C(=O)OCC(C)(C)C2
[1]
  IC50: > 10 µM
[2]
  IC50: > 10 µM
[3]
  IC50: > 10 µM
[4]
  IC50: > 10 µM
[5]
  IC50: > 10 µM
[6]
  IC50: > 10 µM
[7]
  viability, T/C: 90.6%
[8]
  viability, T/C: 83.5%
[9]
  viability, T/C: 84.1%
[10]
  viability, T/C: 72.8%
[11]
  viability, T/C: 77.5%
[12]
  viability, T/C: 75.7%
[13]
  viability, T/C: 82.7%
[14]
  viability, T/C: 68.7%
[15]
  viability, T/C: 87.8%
[16]
  viability, T/C: 83.6%
[17]
  viability, T/C: 83.8%
[18]
  viability, T/C: 82.8%
[19]
  viability, T/C: 94.3%
[20]
  viability, T/C: 80.1%
[21]
  viability, T/C: 80.4%
[22]
  viability, T/C: 78.5%
[23]
  viability, T/C: 77.2%
[24]
  viability, T/C: 68%
[25]
  viability, T/C: 77.1%
[26]
  viability, T/C: 74.6%
[27]
  viability, T/C: 94.7%
[28]
  viability, T/C: 82.5%
[29]
  viability, T/C: 90%
[30]
  viability, T/C: 63.4%
[31]
  viability, T/C: 85.2%
[32]
  viability, T/C: 93.2%
[33]
  viability, T/C: 59.9%
[34]
  viability, T/C: 75%
[35]
  viability, T/C: 80.7%
[36]
  viability, T/C: 70.4%
[37]
  viability, T/C: 78.8%
[38]
  viability, T/C: 72.9%
[39]
  viability, T/C: 63.2%
[40]
  viability, T/C: 56.9%
[41]
  viability, T/C: 76.5%
[42]
  viability, T/C: 65.3%

## CC(C)NCC(C(=O)N1CCN(c2ncnc3c2C(C)CC3O)CC1)c1ccc(Cl)cc1 (stereo not drawn) + CCn1c(-c2cccnc2C(C)OC)c2c3cc(ccc31)N1CCOC(CC(NC(=O)C(C(C)C)N(C)C(=O)C3(F)CCN(C(=O)C#CC(C)(C)N(C)C)CC3)C(=O)N3CCCC(N3)C(=O)OCC(C)(C)C2)C1
[1]
  IC50: 2.21 µM
[2]
  IC50: 1.7 µM
[3]
  IC50: 1.25 µM
[4]
  IC50: 1.18 µM
[5]
  IC50: 1.29 µM
[6]
  IC50: 0.51 µM
[7]
  viability, T/C: 98.8%
[8]
  viability, T/C: 86%
[9]
  viability, T/C: 79.7%
[10]
  viability, T/C: 60%
[11]
  viability, T/C: 44.9%
[12]
  viability, T/C: 30%
[13]
  viability, T/C: 98.4%
[14]
  viability, T/C: 91%
[15]
  viability, T/C: 76.7%
[16]
  viability, T/C: 59.1%
[17]
  viability, T/C: 39.6%
[18]
  viability, T/C: 28.9%
[19]
  viability, T/C: 91.8%
[20]
  viability, T/C: 103%
[21]
  viability, T/C: 73%
[22]
  viability, T/C: 52.6%
[23]
  viability, T/C: 45.4%
[24]
  viability, T/C: 31.2%
[25]
  viability, T/C: 84.5%
[26]
  viability, T/C: 91.1%
[27]
  viability, T/C: 74.1%
[28]
  viability, T/C: 53.7%
[29]
  viability, T/C: 34.7%
[30]
  viability, T/C: 32.4%
[31]
  viability, T/C: 94%
[32]
  viability, T/C: 90.7%
[33]
  viability, T/C: 78.7%
[34]
  viability, T/C: 50.4%
[35]
  viability, T/C: 40.9%
[36]
  viability, T/C: 26.9%
[37]
  viability, T/C: 73.6%
[38]
  viability, T/C: 81%
[39]
  viability, T/C: 51.7%
[40]
  viability, T/C: 40.6%
[41]
  viability, T/C: 27.3%
[42]
  viability, T/C: 17.6%

## CC(C)NCC(C(=O)N1CCN(c2ncnc3c2C(C)CC3O)CC1)c1ccc(Cl)cc1 (stereo not drawn)
Compound 0.0316 µM
  viability, T/C: 96.6% [middle of 4 runs]
Compound 0.1 µM
  viability, T/C: 93.9% [middle of 4 runs]
Compound 0.316 µM
  viability, T/C: 80.4% [middle of 4 runs]
Compound 1 µM
  viability, T/C: 58.8% [middle of 4 runs]
Compound 3.16 µM
  viability, T/C: 47.7% [middle of 4 runs]
Compound 10 µM
  viability, T/C: 35% [middle of 4 runs]
Curve of compound
  IC50: 2.32 µM [middle of 4 runs]

## CC(=O)OC12COC1CC(O)C1(C)C(=O)C(O)C3=C(C)C(OC(=O)C(O)C(NC(=O)OC(C)(C)C)c4ccccc4)CC(O)(C(OC(=O)c4ccccc4)C21)C3(C)C (stereo not drawn) + CCn1c(-c2cccnc2C(C)OC)c2c3cc(ccc31)N1CCOC(CC(NC(=O)C(C(C)C)N(C)C(=O)C3(F)CCN(C(=O)C#CC(C)(C)N(C)C)CC3)C(=O)N3CCCC(N3)C(=O)OCC(C)(C)C2)C1
[1]
  IC50: < 0.0316 µM
[2]
  IC50: < 0.0316 µM
[3]
  IC50: < 0.0316 µM
[4]
  IC50: < 0.0316 µM
[5]
  IC50: < 0.0316 µM
[6]
  IC50: < 0.0316 µM
[7]
  viability, T/C: 13.4%
[8]
  viability, T/C: 13.8%
[9]
  viability, T/C: 13.9%
[10]
  viability, T/C: 10.7%
[11]
  viability, T/C: 13.2%
[12]
  viability, T/C: 17.7%
[13]
  viability, T/C: 15.3%
[14]
  viability, T/C: 12.7%
[15]
  viability, T/C: 12.2%
[16]
  viability, T/C: 14%
[17]
  viability, T/C: 14.4%
[18]
  viability, T/C: 16.7%
[19]
  viability, T/C: 15.4%
[20]
  viability, T/C: 14.8%
[21]
  viability, T/C: 12.1%
[22]
  viability, T/C: 11.9%
[23]
  viability, T/C: 15%
[24]
  viability, T/C: 17.6%
[25]
  viability, T/C: 14.9%
[26]
  viability, T/C: 12.4%
[27]
  viability, T/C: 11.1%
[28]
  viability, T/C: 10.3%
[29]
  viability, T/C: 14.1%
[30]
  viability, T/C: 16.8%
[31]
  viability, T/C: 11.2%
[32]
  viability, T/C: 10.4%
[33]
  viability, T/C: 8.86%
[34]
  viability, T/C: 9.58%
[35]
  viability, T/C: 13.1%
[36]
  viability, T/C: 16.4%
[37]
  viability, T/C: 11.5%
[38]
  viability, T/C: 9.61%
[39]
  viability, T/C: 7.21%
[40]
  viability, T/C: 9.28%
[41]
  viability, T/C: 11.9%
[42]
  viability, T/C: 16.4%
